Results: patent US5852007A, “Cysteine and serine protease inhibitors containing D-amino acid at the P2 position, methods of making same, and methods of using same” (priority 1997, dated 1998)
pIC50: −log10 of the molar value. Where two headings read alike, the source gives them in different places. Square brackets hold non-standard residues; d marks the D form. Peptide text beside a SMILES is read from it. * marks the point of attachment. ξ: configuration not given here. d(hPhe) = N[C@H](CCc1ccccc1)C(=O)O; d2Thi = N[C@H](Cc1cccs1)C(=O)O; Tos = Cc1ccc(S(=O)(=O)*)cc1; ξαMeL = CC(C)CC(C)(N)C(=O)O; dΔPro = O=C(O)[C@H]1C=CCN1; Bn = c1ccc(C*)cc1; Ms = CS(=O)(=O)*

Experiments:
Assay type in all cases: biochemical
[1] = target: T1, cathepsin L (Homo sapiens, UniProt P07711); assay: Inhibition of cathepsin L; conditions: for inhibition at 1 µM: read-out: Cat L % I @ 1 uM
T1 construct: purchased Calbiochem 219402
Experimental: (§1) Additionally,the order of reagents added to the plate was altered because both enzymes are constitutively active. Following inhibitor addition to the plates, appropriate 2× concentrated stock dilutions of the enzyme preparations were made in assay buffer and 100 μl added to each well. The assay was initiated by addition of 100 μl of 2× concentrated stock dilution of substrate in assay buffer.

[2] = target: T2, Recombinant human calpain I (Homo sapiens, UniProt P07384); assay: Inhibition of calpain I activity
T2 construct: made in house
T2 sequence (P07384 1-714): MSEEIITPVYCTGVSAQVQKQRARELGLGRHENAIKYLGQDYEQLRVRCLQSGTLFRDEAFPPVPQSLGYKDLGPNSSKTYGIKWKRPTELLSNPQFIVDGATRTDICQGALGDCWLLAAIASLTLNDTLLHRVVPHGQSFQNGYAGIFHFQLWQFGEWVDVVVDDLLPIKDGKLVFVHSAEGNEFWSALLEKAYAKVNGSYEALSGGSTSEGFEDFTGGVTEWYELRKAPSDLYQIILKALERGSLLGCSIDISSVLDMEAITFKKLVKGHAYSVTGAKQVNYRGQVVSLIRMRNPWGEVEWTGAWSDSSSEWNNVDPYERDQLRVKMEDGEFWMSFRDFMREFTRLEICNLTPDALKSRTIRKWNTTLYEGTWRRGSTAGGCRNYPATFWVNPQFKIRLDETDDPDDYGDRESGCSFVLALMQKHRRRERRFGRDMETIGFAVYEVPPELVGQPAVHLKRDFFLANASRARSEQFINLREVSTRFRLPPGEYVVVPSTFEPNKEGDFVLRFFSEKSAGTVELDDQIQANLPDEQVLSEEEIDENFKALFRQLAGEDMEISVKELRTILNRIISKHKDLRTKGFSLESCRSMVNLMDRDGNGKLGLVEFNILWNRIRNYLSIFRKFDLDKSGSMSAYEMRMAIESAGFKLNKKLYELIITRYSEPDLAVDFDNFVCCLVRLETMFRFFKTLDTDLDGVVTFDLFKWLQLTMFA
Experimental: To evaluate inhibitory activity, stock solutions (40 times concentrated) of exemplary compounds of the invention were prepared in 100% anhydrous DMSO and 5 μL of each inhibitor preparation were aliquoted into each of three wells of a 96-well plate. Recombinant human calpain I, prepared by the method of Meyer et al. (Biochem. […] To start the reaction, 20 μL of 50 mM CaCl2 in assay buffer was added to all wells of the plate, excepting three, which were used as background signal baseline controls. Substrate hydrolysis was monitored every 5 minutes for a total of 30 minutes. […] Inhibition of calpain I activity was calculated as the percent decrease in the rate of substrate hydrolysis in the presence of inhibitor (VI) relative to the rate in its absence (VO). Comparison between VO and VI was made within the linear range for substrate hydrolysis. For screening, compounds were tested at 10, 1.0, and 0.1 μM. […] The results were plotted as % inhibition versus log inhibitor concentration and the IC50 was calculated from linear regression of the data. Apparent second order rate constants were determined from analysis of reaction progress curves under pseudo-first order conditions. Each determination represents the means of three or more independent single cuvette analyses continually monitored via a Perkin-Elmer LS50B spectrofluorimeter. The rate of inhibition of hydrolysis was obtained by fitting the curve to the exponential equation (1): […]

[3] = target: T3, thrombin (Homo sapiens, UniProt P00734); assay: Inhibition of thrombin; conditions: 10 uM; for inhibition at 10 µM: read-out: Thrombin % I @ 10 uM
T3 construct: purchased Sigma Chem. Co. T-7009

[4] = target: T4, cathepsin B (Homo sapiens, UniProt P07858); assay: Inhibition of cathepsin B; conditions: for inhibition at 1 µM: read-out: Cat B % I @ 1 uM; for pIC50: read-out: Cat B IC50
T4 construct: purchased Calbiochem 219364
Experimental: as §1

[5] = target: T5, α-chymotrypsin (Bos taurus, UniProt P00766); assay: Inhibition of α-chymotrypsin; conditions: 10 uM; for inhibition at 10 µM: read-out: Chymotrypsin % I @ 10 uM
T5 construct: purchased Sigma Chem. Co. C-3142
Experimental: Additionally, because α-chymotrypsin is not a calcium sensitive enzyme and is constitutively active, following addition of inhibitor stocks to the 96 well plates, 100 μl of a 2-fold concentrated stock of enzyme in dilution buffer was first added and the reaction started by addition of 100 μl of a 2-fold concentrated stock of substrate in assay buffer. Substrate hydrolysis was monitored every 5 minutes up to 30 minutes using a Fluoroskan II ([…]).

T1 sequence (P07711 114-288 limits assumed): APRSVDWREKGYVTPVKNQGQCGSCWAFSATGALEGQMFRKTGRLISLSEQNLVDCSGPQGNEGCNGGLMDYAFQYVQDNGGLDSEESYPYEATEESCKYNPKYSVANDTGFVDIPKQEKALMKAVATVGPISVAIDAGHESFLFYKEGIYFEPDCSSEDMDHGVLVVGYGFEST
T1 sequence (P07711 292-333 limits assumed): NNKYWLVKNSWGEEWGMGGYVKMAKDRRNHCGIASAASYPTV

inhibition at 1 µM ([1]; Table III, 1 uM)	pIC50 ([2]; Table III)	inhibition at 0.1 µM ([2]; Table III, 0.1 uM)	inhibition at 10 µM ([3]; Table III)	inhibition at 1 µM ([4]; Table III, 1 uM)	inhibition at 10 µM ([5]; Table III)	Structure (SMILES)	other results
100%	7.48	83%	6%	100%	13%	O=C[C@H](Cc1ccccc1)NC(=O)[C@@H](Cc1ccccc1)NS(=O)(=O)c1cccc2cccnc12 [Compound 74]	
100%	7.51	92%	11%	100%	5%	O=C[C@H](Cc1ccccc1)NC(=O)[C@@H](Cc1c[nH]c2ccccc12)NS(=O)(=O)c1ccccc1 [Compound 71]	
100%	7.17	63%		97%		CS(=O)(=O)NC(CCSCc1ccccc1)C(=O)N[C@H](C=O)Cc1ccccc1 (single isomer, unassigned) [Compound 107]	Thrombin % I @ 10 uM ([3]; Table III): 2%; Chymotrypsin % I @ 10 uM ([5]; Table III): 11%
100%		21%	0%	95%	0%	CS(=O)(=O)N[C@H](COCc1ccccc1)C(=O)N[C@H](C=[N+]([O-])Cc1ccccc1)Cc1ccccc1 [Compound 117]	
93%	7.85	91%	0%	90%	0%	CS(=O)(=O)N[C@H](Cc1c[nH]c2ccccc12)C(=O)N[C@H](C=O)Cc1ccccc1 [Compound 77] (Ms-[dW]-Phe-aldehyde)	
98%		0%	0%	19%	10%	CCOC(OCC)[C@H](Cc1ccccc1)NC(=O)[C@@H](COCc1ccccc1)NS(C)(=O)=O [Compound 134]	
						CC(=O)N[C@H](CC(=O)N1CCc2ccccc2C1)C(=O)N[C@H](C=O)Cc1ccccc1 [Compound 9, 2-THIQ-C(=O)CH2 CH(NHC(=O)CH3)C(=O)-Phe--H]	pIC50 ([1]; Table II, read-out: Cat L IC50): 5.70; pIC50 ([2]; Table II): 7.08; inhibition at 10 µM ([3]; Table II): 0%; pIC50 ([4]; Table II): 4.96; inhibition at 10 µM ([5]; Table II): 2%
100%	7.40	72%	0%	78%	8%	CC(C)C[C@@H](NS(C)(=O)=O)C(=O)N[C@H](C=O)Cc1ccccc1 [Compound 86] (Ms-[dL]-Phe-aldehyde)	
97%	7.03	45%	7%	86%	6%	C[C@@H](NS(=O)(=O)c1ccccc1)C(=O)N[C@H](C=O)Cc1ccccc1 [Compound 104]	
100%	7.60	87%	2%	90%	12%	Cc1noc(C)c1S(=O)(=O)N[C@H](COCc1ccccc1)C(=O)N[C@H](C=O)Cc1ccccc1 [Compound 55]	
96%	7.77	87%	7%	90%	14%	CC(=O)N[C@H](COCc1ccccc1)C(=O)N[C@H](C=O)Cc1ccccc1 [Compound 42]	
100%	8.05	95%	0%	99%	0%	CC(C)(C)OC(=O)NCCCC[C@@H](C=O)NC(=O)[C@@H](COCc1ccccc1)NS(C)(=O)=O [Compound 93]	
100%		4%	0%	96%	0%	C[N+]([O-])=C[C@H](Cc1ccccc1)NC(=O)[C@@H](COCc1ccccc1)NS(C)(=O)=O [Compound 116]	
94%		0%	0%	47%	0%	CS(=O)(=O)N[C@H](COCc1ccccc1)C(=O)N[C@H](C=NNC(N)=O)Cc1ccccc1 [Compound 115]	
89%	7.41	71%	0%	85%	4%	CS(=O)(=O)N[C@H](CCc1ccccc1)C(=O)N[C@H](C=O)Cc1ccccc1 [Compound 62] (Ms-[d(hPhe)]-Phe-aldehyde)	
83%		10%	0%	12%	0%	CC(C)CC(C)(C=O)NC(=O)[C@@H](COCc1ccccc1)NS(C)(=O)=O (some centres unmarked) [Compound 110] (Ms-[dS](Bn)-[ξαMeL]-aldehyde)	
100%	7.82	96%	0%	97%	0%	CS(=O)(=O)N[C@H](Cc1cccs1)C(=O)N[C@H](C=O)Cc1ccccc1 [Compound 100] (Ms-[d2Thi]-Phe-aldehyde)	pIC50 ([4]; Table III): 7.51
	6.76					CS(=O)(=O)N1Cc2ccccc2CC1C(=O)N[C@H](C=O)Cc1ccccc1 (single isomer, unassigned) [Compound 96]	Cat L % I @ 1 uM ([1]; Table III, 1 uM): 100%; Calpain % I @ 0.1 uM ([2]; Table III, 0.1 uM): 49%; Thrombin % I @ 10 uM ([3]; Table III): 0%; Cat B % I @ 1 uM ([4]; Table III, 1 uM): 90%; Chymotrypsin % I @ 10 uM ([5]; Table III): 14%
100%		85%	3%	24%	9%	Cc1ccc(S(=O)(=O)N2C[C@@H](N=[N+]=[N-])C[C@@H]2C(=O)N[C@H](C=O)Cc2ccccc2)cc1 [Compound 114]	
97%	8.00	90%	9%	62%	0%	Cc1ccc(S(=O)(=O)N2CC=C[C@@H]2C(=O)N[C@H](C=O)Cc2ccccc2)cc1 [Compound 130] (Tos-[dΔPro]-Phe-aldehyde)	
100%	7.28	84%	0%	46%	2%	CS(=O)(=O)N1CCC[C@@H]1C(=O)N[C@H](C=O)Cc1ccccc1 [Compound 101] (Ms-[dP]-Phe-aldehyde)	
100%	7.85	91%	13%	100%	7%	O=C[C@H](Cc1ccccc1)NC(=O)[C@@H](Cc1ccccc1)NS(=O)(=O)c1ccc2ccccc2c1 [Compound 72]	
100%		30%	0%	68%	53%	Cc1nn(C)c(Cl)c1S(=O)(=O)N[C@H](COCc1ccccc1)C(=O)N[C@H](C=O)Cc1ccccc1 [Compound 91]	
